{"source": "patent US9283256B2", "about": "“Antibacterial composition comprising Salvia extracts” (Botanic Century (Beijing) Co. Ltd., priority 2007, dated 2016)", "key": {"Staphylococcus aureus": {"test_system": "Staphylococcus aureus", "details": "filter paper disc, chemicals isolated from Danshen; cited from earlier work"}, "MRSA 2": {"test_system": "MRSA 2", "experiment": "MIC and MBC by microtitre well methods, PYN6 versus individual compounds (TEST 2)", "format": "cell-based, Staphylococcus aureus", "details": "for MIC: microtitre well, growth over 20 hrs, 490 nm; for MBC: subculture onto solid media after 20 hrs", "protocol": "(§1) Minimum Inhibitory and Minimum Bactericidal activities (MIC and MBC) of PYN6 were determined for 2 strains of MRSA using standard microtitre well methods. MICs were determined by measuring growth over 20 hrs using spectroscopy at 490 nm. MBCs were determined by subculture from these microtitre plates onto solid media after 20 hrs and determining survival of bacteria grown in the presence of PYN6.\nTEST 2 MIC and MBC comparing PYN6 to A, B, C and D against MRSA 2"}, "MRSA 98": {"test_system": "MRSA 98", "experiment": "MIC and MBC by microtitre well methods, PYN6 versus individual compounds (TEST 1)", "format": "cell-based, Staphylococcus aureus", "protocol": "as §1\nTEST 1 MIC and MBC comparing PYN6 to A, B, C and D against MRSA 98"}, "[1]": {"test_system": "Bacillus aeruginosus ATCC227853", "details": "dissolved in dimethylformamide (DMF); cited from earlier work"}, "[2]": {"details": "dissolved in chloroform; cited from earlier work"}, "Escherichia coli": {"test_system": "Escherichia coli", "details": "dissolved in dimethylformamide (DMF); cited from earlier work"}, "[3]": {"test_system": "Staphylococcus aureus ATCC225923", "details": "dissolved in dimethylformamide (DMF); cited from earlier work"}, "Haemolytic streptococcus": {"test_system": "Haemolytic streptococcus", "details": "dissolved in dimethylformamide (DMF); cited from earlier work"}, "[4]": {"test_system": "clinical isolates of MRSA (T3, 102, MRSA 99)", "format": "cell-based, Staphylococcus aureus", "details": "sub-inhibitory sub-culture, 3 week test period", "description": "This experiment was conducted to test for the rapid development of resistance in Staphylococcus aureus in the presence of sub-inhibitory doses of the active extract.\nAll clinical strains were from The Royal London, St Bartholomew's or Newham hospitals in London. Each strain had been identified as an MRSA.\nHigh concentrations of organisms (10^7cfu/ml^−1) were grown in sub-inhibitory concentrations 0, 2 and 8 mg l^−1 of the active extract.\nOrganisms were sub-cultured into fresh active extract media at day 4 and again at day 7. MICs were checked weekly using standard methods. Subcultures were carried out in triplicate."}, "[5]": {"details": "TEST 1, MRSA 98, microtitre well, growth over 20 hrs, 490 nm"}, "[6]": {"details": "TEST 1, MRSA 98, subculture onto solid media after 20 hrs"}, "[7]": {"details": "Staphylococcus aureus, read-out: MIC"}, "[8]": {"details": "Staphylococcus aureus, read-out: MBC"}, "[9]": {"details": "Staphylococcus aureus, MRSA, 20 h"}}, "note": "Where two headings read alike, the source gives them in different places."}
{"compound": "Cc1coc2c1C(=O)C(=O)c1c-2ccc2c(C)cccc12", "note": "[A, Tashinone 1]", "values": [{"measurement": "anti-Staphylococcus aureus activity", "setting": "Staphylococcus aureus", "value": "did not show activity"}, {"measurement": "MIC", "setting": "MRSA 2", "value": 125, "unit": "mg/L"}, {"measurement": "MBC", "setting": "MRSA 2", "value": ">500", "unit": "mg/L"}, {"measurement": "MIC", "setting": "MRSA 98; [5]", "value": 125, "unit": "mg/L"}, {"measurement": "MBC", "setting": "MRSA 98; [6]", "value": "<500", "unit": "mg/L"}]}
{"compound": "Cc1coc2c1C(=O)C(=O)c1c-2ccc2c1CCCC2(C)C", "note": "[B, Tashinone 11A]", "values": [{"measurement": "anti-Staphylococcus aureus activity", "setting": "Staphylococcus aureus", "value": "did not show activity"}, {"measurement": "MIC", "setting": "MRSA 2; [7]", "value": 125, "unit": "mg/L"}, {"measurement": "MBC", "setting": "MRSA 2; [8]", "value": "> 500", "unit": "mg/L"}, {"measurement": "MIC", "setting": "[1]", "value": 50, "unit": "mg/L"}, {"measurement": "MIC", "setting": "MRSA 98; Staphylococcus aureus, TEST 1, MRSA 98, microtitre well, growth over 20 hrs, 490 nm, read-out: MIC", "value": 125, "unit": "mg/L"}, {"measurement": "MBC", "setting": "MRSA 98; Staphylococcus aureus, TEST 1, MRSA 98, subculture onto solid media after 20 hrs, read-out: MBC", "value": "< 500", "unit": "mg/L"}, {"measurement": "anti-microbial activity", "setting": "[2]", "value": "did not demonstrate any anti-microbial activity"}, {"measurement": "minimum inhibitory concentration (MIC)", "setting": "Escherichia coli", "value": 50, "unit": "mg/L"}, {"measurement": "MIC", "setting": "[3]", "value": 100, "unit": "mg/L"}, {"measurement": "MIC", "setting": "Haemolytic streptococcus", "value": 121.5, "unit": "mg/L"}]}
{"compound": "Cc1cccc2c3c(ccc12)C1=C(C(=O)C3=O)[C@@H](C)CO1", "note": "[C, Dyhydrotashinone]", "values": [{"measurement": "anti-Staphylococcus aureus activity", "setting": "Staphylococcus aureus", "value": "demonstrated anti-Staphylococcus aureus activity"}, {"measurement": "MIC", "setting": "MRSA 2", "value": 1.8, "unit": "mg/L"}, {"measurement": "MBC", "setting": "MRSA 2", "value": 62, "unit": "mg/L"}, {"measurement": "MIC", "setting": "MRSA 98; [5]", "value": 8, "unit": "mg/L"}, {"measurement": "MBC", "setting": "MRSA 98; [6]", "value": 125, "unit": "mg/L"}]}
{"compound": "C[C@H]1COC2=C1C(=O)C(=O)c1c2ccc2c1CCCC2(C)C", "note": "[D, Cryptotashinone]", "values": [{"measurement": "MIC", "setting": "MRSA 2; [7]", "value": 7.7, "unit": "mg/L"}, {"measurement": "MBC", "setting": "MRSA 2; [8]", "value": 125, "unit": "mg/L"}, {"measurement": "MBC", "setting": "MRSA 98; [9]", "value": 250, "unit": "mg/L"}, {"measurement": "MIC", "setting": "MRSA 98; [9]", "value": 15, "unit": "mg/L"}]}
{"compound": "Cc1coc2c1C(=O)C(=O)c1c-2ccc2c1CCCC2(C)CO", "note": "(stereo not drawn) [Tanshinone IIB]", "values": [{"measurement": "anti-Staphylococcus aureus activity", "setting": "Staphylococcus aureus", "value": "demonstrated anti-Staphylococcus aureus activity"}, {"measurement": "MIC", "setting": "[1]", "value": 25, "unit": "mg/L"}, {"measurement": "minimum inhibitory concentration (MIC)", "setting": "Escherichia coli", "value": 25, "unit": "mg/L"}, {"measurement": "MIC", "setting": "[3]", "value": 50, "unit": "mg/L"}, {"measurement": "MIC", "setting": "Haemolytic streptococcus", "value": 25, "unit": "mg/L"}]}
{"compound": "Gentamicin", "values": [{"measurement": "development of resistance", "setting": "[4]", "value": "no development of resistance"}]}
{"compound": "neotanshinone A", "values": [{"measurement": "anti-Staphylococcus aureus activity", "setting": "Staphylococcus aureus", "value": "did not show activity"}]}
{"compound": "neotanshinone B", "values": [{"measurement": "anti-Staphylococcus aureus activity", "setting": "Staphylococcus aureus", "value": "did not show activity"}]}
{"compound": "neotanshinone C", "values": [{"measurement": "anti-Staphylococcus aureus activity", "setting": "Staphylococcus aureus", "value": "did not show activity"}]}
